# Experimental data: article PMC8569681, “New Pyrimidine and Pyridine Derivatives as Multitarget Cholinesterase Inhibitors: Design, Synthesis, and In Vitro and In Cellulo Evaluation” (ACS Chemical Neuroscience, 2021)
# Biological target: T1, Electrophorus electricus AChE (EeAChE) (Electrophorus electricus, UniProt O42275)
# T1 construct: purchased Sigma-Aldrich (Milan, Italy)
# Assay: Percent inhibition of EeAChE, Ellman's spectrophotometric method
# Type: biochemical
# Conditions: read-out: % inhibition vs EeAChE ± SD (9 uM), 9 uM; supplement csv
# Experimental: (§1) All other chemical and biological reagents and solvents used were of the highest analytical, commercially available grade. The water, utilized for the preparation of the phosphate buffer and of the compound solutions, was distilled and filtered on nylon membrane filters with a 0.2 μm pore size with the Millipore Filtration apparatus before each use. Micropipettes Labmate (BRAND Dig. 10–100 μL; Dig. 100–1000 μL; Dig. 0.1–2 μL) and Transferpette (HIGH TECH LAB LM200: 20–200 μL; LM5000: 1000–5000 μL) were used to collect the samples. The assays were carried out by a double beam UV–vis Lambda 40 Perkin Elmer spectrophotometer using optical polystyrene cuvettes (10 × 10 × 45 mm, 340–800 nm optical transparency); each measure was repeated at least in triplicate. […] The spectrophotometric method of Ellman[25] with minor modifications was used to evaluate the inhibition of ChEs. […] EeAChE and eqBChE were periodically tested to evaluate the effective enzymatic activity.
# (§2) For all the synthesized compounds, the percentages of inhibition toward AChE of Electrophorus electricus (EeAChE) and equine BChE (eqBChE) were evaluated.
# Three milliliters of a solution in 0.1 M phosphate buffer (pH = 7.4) containing DTNB (0.25 mM) and EeAChE (0.083 UmL^–1) or eqBChE (0.083 UmL^–1) was placed in a polystyrene cuvette of 1.0 cm path length; 1 μL of a […] With this solution, the blank was made. […] Each experiment was repeated at least in triplicate.
# T1 sequence (O42275 24-633): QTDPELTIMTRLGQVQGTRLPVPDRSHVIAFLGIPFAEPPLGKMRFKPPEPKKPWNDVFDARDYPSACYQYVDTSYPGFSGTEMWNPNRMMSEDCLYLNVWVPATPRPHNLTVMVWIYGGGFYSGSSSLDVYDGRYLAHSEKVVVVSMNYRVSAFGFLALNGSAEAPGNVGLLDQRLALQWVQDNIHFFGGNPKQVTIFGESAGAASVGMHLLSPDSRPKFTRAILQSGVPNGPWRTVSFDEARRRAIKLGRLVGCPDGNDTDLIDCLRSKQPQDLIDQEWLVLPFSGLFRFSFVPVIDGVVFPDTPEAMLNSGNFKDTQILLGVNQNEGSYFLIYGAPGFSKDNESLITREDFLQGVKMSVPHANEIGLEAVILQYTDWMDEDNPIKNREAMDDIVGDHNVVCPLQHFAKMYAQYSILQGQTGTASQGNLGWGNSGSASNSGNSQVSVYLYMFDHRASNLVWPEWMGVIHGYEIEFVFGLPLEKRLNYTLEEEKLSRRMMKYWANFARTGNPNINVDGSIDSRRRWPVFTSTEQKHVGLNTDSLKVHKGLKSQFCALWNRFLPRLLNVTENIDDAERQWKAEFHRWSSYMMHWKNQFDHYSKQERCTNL
row,SMILES,inhibition at 9 µM [%]
1,"Brc1ccc(CNCCCCCNc2ncccn2)cc1 [Compound 10, N^1-(4-Bromobenzyl)-N^5-(pyrimidin-2-yl)pentane-1,5-diamine]",14.5 ± 0.7
2,"COc1ccccc1CNCCCCCNc1ncccn1 [Compound 11, N^1-(2-Methoxybenzyl)-N^5-(pyrimidin-2-yl)pentane-1,5-diamine]",62.2 ± 0.9
3,"Clc1cc(CNCCCCCNc2ncccn2)cc(Cl)n1 [Compound 12, N^1-((2,6-Dichloropyridin-4-yl)methyl)-N^5-(pyrimidin-2-yl)pentane-1,5-diamine]",16.5 ± 2
4,"Brc1ccc(CNCCCCCCNc2ncccn2)cc1 [Compound 14, N^1-(4-Bromobenzyl)-N^6-(pyrimidin-2-yl)hexane-1,6-diamine]",23 ± 1.6
5,"Clc1ccc(CNCCCCCCNc2ncccn2)cc1 [Compound 15, N^1-(4-Chlorobenzyl)-N^6-(pyrimidin-2-yl)hexane-1,6-diamine]",29.9 ± 1.2
6,"COc1ccccc1CNCCCCCCNc1ncccn1 [Compound 16, N^1-(2-Methoxybenzyl)-N^6-(pyrimidin-2-yl)hexane-1,6-diamine]",68.3 ± 0.7
7,"COc1cc(CNCCCCCCNc2ncccn2)cc(OC)c1OC [Compound 17, N^1-(Pyrimidin-2-yl)-N^6-(3,4,5-trimethoxybenzyl)hexane-1,6-diamine]",16.4 ± 2.8
8,"Clc1cc(CNCCCCCCNc2ncccn2)cc(Cl)n1 [Compound 21, N^1-((2,6-Dichloropyridin-4-yl)methyl)-N^6-(pyrimidin-2-yl)hexane-1,6-diamine]",18.5 ± 1.8

# Same assay, conditions: read-out: % inhibition vs EeAChE ± SD (900 uM), 900 uM; supplement csv
row,SMILES,inhibition at 900 µM [%]
1,"COc1ccccc1CNCCCCCNc1ncccn1 [Compound 11, N^1-(2-Methoxybenzyl)-N^5-(pyrimidin-2-yl)pentane-1,5-diamine]",14.6 ± 0.6
2,"COc1ccccc1CNCCCCCCNc1ncccn1 [Compound 16, N^1-(2-Methoxybenzyl)-N^6-(pyrimidin-2-yl)hexane-1,6-diamine]",15.7 ± 1.1

# Same assay, conditions: read-out: % inhibition vs EeAChE ± SD, [I] 900 nM; 0.0833 U/mL enzyme, 100 μM acetylthiocholine
row,SMILES,inhibition at 0.9 µM [%]
1,"COc1ccccc1CNCCCCCNc1ncccn1 [Compound 11, N^1-(2-Methoxybenzyl)-N^5-(pyrimidin-2-yl)pentane-1,5-diamine]",14.6 ± 0.6
2,"COc1ccccc1CNCCCCCCNc1ncccn1 [Compound 16, N^1-(2-Methoxybenzyl)-N^6-(pyrimidin-2-yl)hexane-1,6-diamine]",15.7 ± 1.1

# Same assay, conditions: read-out: % inhibition vs EeAChE ± SD, [I] 9 μM; 0.0833 U/mL enzyme, 100 μM acetylthiocholine
row,SMILES,inhibition at 9 µM [%]
1,"Brc1ccc(CNCCCCCNc2ncccn2)cc1 [Compound 10, N^1-(4-Bromobenzyl)-N^5-(pyrimidin-2-yl)pentane-1,5-diamine]",14.5 ± 0.7
2,"COc1ccccc1CNCCCCCNc1ncccn1 [Compound 11, N^1-(2-Methoxybenzyl)-N^5-(pyrimidin-2-yl)pentane-1,5-diamine]",60 to 70
3,"Clc1cc(CNCCCCCNc2ncccn2)cc(Cl)n1 [Compound 12, N^1-((2,6-Dichloropyridin-4-yl)methyl)-N^5-(pyrimidin-2-yl)pentane-1,5-diamine]",16.5 ± 2
4,"Brc1ccc(CNCCCCCCNc2ncccn2)cc1 [Compound 14, N^1-(4-Bromobenzyl)-N^6-(pyrimidin-2-yl)hexane-1,6-diamine]",23 ± 1.6
5,"Clc1ccc(CNCCCCCCNc2ncccn2)cc1 [Compound 15, N^1-(4-Chlorobenzyl)-N^6-(pyrimidin-2-yl)hexane-1,6-diamine]",29.9 ± 1.2
6,"COc1ccccc1CNCCCCCCNc1ncccn1 [Compound 16, N^1-(2-Methoxybenzyl)-N^6-(pyrimidin-2-yl)hexane-1,6-diamine]",60 to 70
7,"COc1cc(CNCCCCCCNc2ncccn2)cc(OC)c1OC [Compound 17, N^1-(Pyrimidin-2-yl)-N^6-(3,4,5-trimethoxybenzyl)hexane-1,6-diamine]",16.4 ± 2.8
8,"Clc1cc(CNCCCCCCNc2ncccn2)cc(Cl)n1 [Compound 21, N^1-((2,6-Dichloropyridin-4-yl)methyl)-N^6-(pyrimidin-2-yl)hexane-1,6-diamine]",18.5 ± 1.8

# Biological target: T2, equine BChE (eqBChE) (Equus caballus, UniProt P81908)
# T2 construct: purchased Sigma-Aldrich (Milan, Italy)
# T2 sequence (P81908 whole entry): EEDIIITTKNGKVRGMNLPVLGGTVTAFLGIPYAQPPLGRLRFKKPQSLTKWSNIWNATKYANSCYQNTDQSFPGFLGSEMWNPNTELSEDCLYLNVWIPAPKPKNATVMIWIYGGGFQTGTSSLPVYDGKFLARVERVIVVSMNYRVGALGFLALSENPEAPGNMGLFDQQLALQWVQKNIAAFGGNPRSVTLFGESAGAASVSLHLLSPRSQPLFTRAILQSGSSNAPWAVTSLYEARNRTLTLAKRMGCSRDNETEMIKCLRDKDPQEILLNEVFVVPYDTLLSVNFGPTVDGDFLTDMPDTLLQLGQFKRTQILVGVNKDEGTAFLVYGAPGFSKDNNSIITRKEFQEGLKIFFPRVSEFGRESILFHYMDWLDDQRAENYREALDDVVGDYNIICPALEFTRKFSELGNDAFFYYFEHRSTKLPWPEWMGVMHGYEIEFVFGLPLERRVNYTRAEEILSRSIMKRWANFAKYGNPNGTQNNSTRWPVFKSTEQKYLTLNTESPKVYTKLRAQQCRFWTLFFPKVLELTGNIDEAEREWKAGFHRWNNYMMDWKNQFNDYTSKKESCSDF
# Assay: Percent inhibition of eqBChE, Ellman's spectrophotometric method
# Type: biochemical
# Conditions: 900 nM; supplement csv
# Experimental: On the synthesized compounds, enzymatic inhibition studies were carried out toward Electrophorus electricus AChE (EeAChE) and equine BChE (eqBChE) according to Ellman’s spectrophotometric method.[25]
# as §1, §2
# Three milliliters of a solution in 0.1 M phosphate buffer (pH = 7.4) containing DTNB (0.25 mM) and EeAChE (0.083 UmL^–1) or eqBChE (0.083 UmL^–1) was placed in a polystyrene cuvette of 1.0 cm path length; 1 μL of a solution in DMSO of the tested compound was added to obtain a cuvette concentration range of 9–0.09 μM. With this solution, the blank was made. […] Each experiment was repeated at least in triplicate.
row,SMILES,% inhibition vs eqBChE ± SD (900 uM) [%]
1,"Brc1ccc(CNCCCCCCNc2ncccn2)cc1 [Compound 14, N^1-(4-Bromobenzyl)-N^6-(pyrimidin-2-yl)hexane-1,6-diamine]",6.6 ± 0.2
2,"COc1ccccc1CNCCCCCCNc1ncccn1 [Compound 16, N^1-(2-Methoxybenzyl)-N^6-(pyrimidin-2-yl)hexane-1,6-diamine]",6.2 ± 0.4

# Same assay, conditions: [I] 900 nM; 0.0833 U/mL enzyme, 100 μM acetylthiocholine; read-out: % inhibition vs eqBChE ± SD
row,SMILES,inhibition at 0.9 µM [%]
1,"Brc1ccc(CNCCCCCCNc2ncccn2)cc1 [Compound 14, N^1-(4-Bromobenzyl)-N^6-(pyrimidin-2-yl)hexane-1,6-diamine]",6.6 ± 0.2
2,"COc1ccccc1CNCCCCCCNc1ncccn1 [Compound 16, N^1-(2-Methoxybenzyl)-N^6-(pyrimidin-2-yl)hexane-1,6-diamine]",6.2 ± 0.4

# Same assay, conditions: [I] 9 μM; 0.0833 U/mL enzyme, 100 μM acetylthiocholine; read-out: % inhibition vs eqBChE ± SD
row,SMILES,inhibition at 9 µM [%]
1,"Brc1ccc(CNCCCCCNc2ncccn2)cc1 [Compound 10, N^1-(4-Bromobenzyl)-N^5-(pyrimidin-2-yl)pentane-1,5-diamine]",17.1 ± 0.9
2,"COc1ccccc1CNCCCCCNc1ncccn1 [Compound 11, N^1-(2-Methoxybenzyl)-N^5-(pyrimidin-2-yl)pentane-1,5-diamine]",22.1 ± 1.3
3,"Clc1cc(CNCCCCCNc2ncccn2)cc(Cl)n1 [Compound 12, N^1-((2,6-Dichloropyridin-4-yl)methyl)-N^5-(pyrimidin-2-yl)pentane-1,5-diamine]",8.5 ± 1.3
4,"Brc1ccc(CNCCCCCCNc2ncccn2)cc1 [Compound 14, N^1-(4-Bromobenzyl)-N^6-(pyrimidin-2-yl)hexane-1,6-diamine]",38.6 ± 5.5
5,"Clc1ccc(CNCCCCCCNc2ncccn2)cc1 [Compound 15, N^1-(4-Chlorobenzyl)-N^6-(pyrimidin-2-yl)hexane-1,6-diamine]",21.5 ± 1.2
6,"COc1ccccc1CNCCCCCCNc1ncccn1 [Compound 16, N^1-(2-Methoxybenzyl)-N^6-(pyrimidin-2-yl)hexane-1,6-diamine]",43.9 ± 4.8
7,"COc1cc(CNCCCCCCNc2ncccn2)cc(OC)c1OC [Compound 17, N^1-(Pyrimidin-2-yl)-N^6-(3,4,5-trimethoxybenzyl)hexane-1,6-diamine]",29.4 ± 4.5
8,"Clc1cc(CNCCCCCCNc2ncccn2)cc(Cl)n1 [Compound 21, N^1-((2,6-Dichloropyridin-4-yl)methyl)-N^6-(pyrimidin-2-yl)hexane-1,6-diamine]",26.8 ± 0.4

# Same assay, conditions: read-out: % inhibition vs eqBChE ± SD (9 uM), 9 uM; supplement csv
row,SMILES,inhibition at 9 µM [%]
1,"Brc1ccc(CNCCCCCNc2ncccn2)cc1 [Compound 10, N^1-(4-Bromobenzyl)-N^5-(pyrimidin-2-yl)pentane-1,5-diamine]",17.1 ± 0.9
2,"COc1ccccc1CNCCCCCNc1ncccn1 [Compound 11, N^1-(2-Methoxybenzyl)-N^5-(pyrimidin-2-yl)pentane-1,5-diamine]",22.1 ± 1.3
3,"Clc1cc(CNCCCCCNc2ncccn2)cc(Cl)n1 [Compound 12, N^1-((2,6-Dichloropyridin-4-yl)methyl)-N^5-(pyrimidin-2-yl)pentane-1,5-diamine]",8.5 ± 1.3
4,"Brc1ccc(CNCCCCCCNc2ncccn2)cc1 [Compound 14, N^1-(4-Bromobenzyl)-N^6-(pyrimidin-2-yl)hexane-1,6-diamine]",38.6 ± 5.5
5,"Clc1ccc(CNCCCCCCNc2ncccn2)cc1 [Compound 15, N^1-(4-Chlorobenzyl)-N^6-(pyrimidin-2-yl)hexane-1,6-diamine]",21.5 ± 1.2
6,"COc1ccccc1CNCCCCCCNc1ncccn1 [Compound 16, N^1-(2-Methoxybenzyl)-N^6-(pyrimidin-2-yl)hexane-1,6-diamine]",43.9 ± 4.8
7,"COc1cc(CNCCCCCCNc2ncccn2)cc(OC)c1OC [Compound 17, N^1-(Pyrimidin-2-yl)-N^6-(3,4,5-trimethoxybenzyl)hexane-1,6-diamine]",29.4 ± 4.5
8,"Clc1cc(CNCCCCCCNc2ncccn2)cc(Cl)n1 [Compound 21, N^1-((2,6-Dichloropyridin-4-yl)methyl)-N^6-(pyrimidin-2-yl)hexane-1,6-diamine]",26.8 ± 0.4
